Structures can show the parent of a compound that is named as a salt. Where two headings read alike, the source gives them in different places.
How the values were obtained:
Test in all cases: AK assay 384-well format, Prestwick library screening
E. faecium = format: cell-based, Enterococcus faecium; conditions: 50 μM final drug concentration; for fold induction at 50 µM: Enterococcus faecium, 3 h
[1] = system: S. aureus strain USA300-0114; format: cell-based, Staphylococcus aureus; conditions: 50 μM final drug concentration; for fold induction at 50 µM: Staphylococcus aureus, USA300, 3 h
K. pneumoniae = format: cell-based, Klebsiella pneumoniae; conditions: 50 μM final drug concentration; for fold induction at 50 µM: Klebsiella pneumoniae, 3 h
[2] = system: A. baumannii strain 98-37-09; format: cell-based, Acinetobacter baumannii; conditions: 50 μM final drug concentration; for fold induction at 50 µM: Acinetobacter baumannii, 983709, 3 h
P. aeruginosa = format: cell-based, Pseudomonas aeruginosa; conditions: 50 μM final drug concentration; for fold induction at 50 µM: Pseudomonas aeruginosa, 3 h
E. cloacae = format: cell-based, Enterobacter cloacae; conditions: 50 μM final drug concentration; for fold induction at 50 µM: Enterobacter cloacae, 3 h
E. coli = format: cell-based, Escherichia coli; conditions: 50 μM final drug concentration; for fold induction at 50 µM: Escherichia coli, 3 h
[3] = planktonic, cutoff for positive-scoring molecules 3-fold increase

Question: What does the source list for `CC[C@@H](CO)NC(=O)[C@@H]1C=C2c3cccc4[nH]cc(c34)C[C@H]2N(C)C1` [Methylergometrine maleate]?
Answer: fold induction at 50 µM (E. faecium; planktonic, […], read-out: AK-based Prestwick Library Screening Results, E. faecium (fold increase in extracellular AK activity)): 0.9; fold induction at 50 µM ([1]; planktonic, […], read-out: AK-based Prestwick Library Screening Results, S. aureus (fold increase in extracellular AK activity)): 0.8; fold induction at 50 µM (K. pneumoniae; planktonic, […], read-out: AK-based Prestwick Library Screening Results, K. pneumoniae (fold increase in extracellular AK activity)): 1; fold induction at 50 µM ([2]; planktonic, […], read-out: AK-based Prestwick Library Screening Results, A. baumannii (fold increase in extracellular AK activity)): 0.9; fold induction at 50 µM (P. aeruginosa; planktonic, […], read-out: AK-based Prestwick Library Screening Results, P. aeruginosa (fold increase in extracellular AK activity)): 0.9; fold induction at 50 µM (E. cloacae; planktonic, […], read-out: AK-based Prestwick Library Screening Results, E. cloacae (fold increase in extracellular AK activity)): 1.6; fold induction at 50 µM (E. coli; planktonic, […], read-out: AK-based Prestwick Library Screening Results, E. coli (fold increase in extracellular AK activity)): 1

Question: For `CC(C)NC[C@@H](O)c1ccc(O)c(O)c1.O=C(O)C(O)C(O)C(=O)O` [(+)-Isoproterenol (+)-bitartrate salt], which “AK-based Prestwick Library Screening Results, E. faecium (fold increase in extracellular AK activity)” value (E. faecium; [3]) is on record?
Answer: 0.9

Question: And the “AK-based Prestwick Library Screening Results, S. aureus (fold increase in extracellular AK activity)” value [1, 3]?
Answer: 0.8

Question: And the “AK-based Prestwick Library Screening Results, K. pneumoniae (fold increase in extracellular AK activity)” value (K. pneumoniae; [3])?
Answer: 1.0

Question: And the “AK-based Prestwick Library Screening Results, A. baumannii (fold increase in extracellular AK activity)” value [2, 3]?
Answer: 0.8

Question: And the “AK-based Prestwick Library Screening Results, P. aeruginosa (fold increase in extracellular AK activity)” value (P. aeruginosa; [3])?
Answer: 0.8

Question: What about the “AK-based Prestwick Library Screening Results, E. cloacae (fold increase in extracellular AK activity)” value (E. cloacae; [3]) of the same molecule?
Answer: 1.4

Question: And the “AK-based Prestwick Library Screening Results, E. coli (fold increase in extracellular AK activity)” value (E. coli; [3])?
Answer: 0.9

Question: For `N[C@@H](Cc1cc(I)c(Oc2cc(I)c(O)c(I)c2)c(I)c1)C(=O)O` [Thyroxine (L)], which “AK-based Prestwick Library Screening Results: E. faecium (increase in extracellular AK activity)” value (E. faecium; planktonic E. faecium, 384-well, […]) is on record?
Answer: 1.0

Question: And the “AK-based Prestwick Library Screening Results: S. aureus (increase in extracellular AK activity)” value ([1]; planktonic S. aureus, 384-well, […])?
Answer: 0.2

Question: And the “AK-based Prestwick Library Screening Results: K. pneumoniae (increase in extracellular AK activity)” value (K. pneumoniae; planktonic K. pneumoniae, 384-well, […])?
Answer: 0.4

Question: And the “AK-based Prestwick Library Screening Results: A. baumannii (increase in extracellular AK activity)” value ([2]; planktonic A. baumannii, 384-well, […])?
Answer: 0.4

Question: What about the “AK-based Prestwick Library Screening Results: P. aeruginosa (increase in extracellular AK activity)” value (P. aeruginosa; planktonic P. aeruginosa, 384-well, […]) of the same molecule?
Answer: 0.4

Question: And the “AK-based Prestwick Library Screening Results: E. cloacae (increase in extracellular AK activity)” value (E. cloacae; planktonic E. cloacae, 384-well, […])?
Answer: 0.3

Question: And the “AK-based Prestwick Library Screening Results: E. coli (increase in extracellular AK activity)” value (E. coli; planktonic E. coli, 384-well, […])?
Answer: 0.5

Question: For `C=CC[N@@+]12CC[C@@]34c5ccccc5N5/C=C6/[C@H]7C[C@H]8[C@@]9(CC[N@@+]8(CC=C)C/C7=C/CO)c7ccccc7N(/C=C(/[C@@H](C[C@@H]31)/C(=C\CO)C2)[C@H]54)[C@@H]69.[Cl-].[Cl-]` [Alcuronium chloride], which “AK-based Prestwick library screening result, E. faecium (fold increase in extracellular AK activity)” value (E. faecium; planktonic E. faecium, […]) is on record?
Answer: 1.0

Question: What about the “AK-based Prestwick library screening result, S. aureus (fold increase in extracellular AK activity)” value ([1]; planktonic S. aureus, […]) of the same molecule?
Answer: 1.2

Question: And the “AK-based Prestwick library screening result, K. pneumoniae (fold increase in extracellular AK activity)” value (K. pneumoniae; planktonic K. pneumoniae, […])?
Answer: 1.0

Question: What about the “AK-based Prestwick library screening result, A. baumannii (fold increase in extracellular AK activity)” value ([2]; planktonic A. baumannii, […]) of the same molecule?
Answer: 1.4

Question: And the “AK-based Prestwick library screening result, P. aeruginosa (fold increase in extracellular AK activity)” value (P. aeruginosa; planktonic P. aeruginosa, […])?
Answer: 1.0

Question: And the “AK-based Prestwick library screening result, E. cloacae (fold increase in extracellular AK activity)” value (E. cloacae; planktonic E. cloacae, […])?
Answer: 2.2

Question: What about the “AK-based Prestwick library screening result, E. coli (fold increase in extracellular AK activity)” value (E. coli; planktonic E. coli, […]) of the same molecule?
Answer: 1.4

Question: How did the fold induction at 50 µM (E. faecium; cutoff for positive-scoring molecules 3-fold increase, read-out: AK-based Prestwick Library Screening Results, E. faecium (fold increase in extracellular AK activity)) turn out when `CCN1C(=O)NC(c2ccccc2)C1=O` (centres unmarked) [Ethotoin] was run?
Answer: 1

Question: And the fold induction at 50 µM ([1]; cutoff for positive-scoring molecules 3-fold increase, read-out: AK-based Prestwick Library Screening Results, S. aureus (fold increase in extracellular AK activity))?
Answer: 1.2

Question: And the fold induction at 50 µM (K. pneumoniae; cutoff for positive-scoring molecules 3-fold increase, read-out: AK-based Prestwick Library Screening Results, K. pneumoniae (fold increase in extracellular AK activity))?
Answer: 1

Question: What about the fold induction at 50 µM ([2]; cutoff for positive-scoring molecules 3-fold increase, read-out: AK-based Prestwick Library Screening Results, A. baumannii (fold increase in extracellular AK activity)) of the same molecule?
Answer: 1.1

Question: What about the fold induction at 50 µM (P. aeruginosa; cutoff for positive-scoring molecules 3-fold increase, read-out: AK-based Prestwick Library Screening Results, P. aeruginosa (fold increase in extracellular AK activity)) of the same molecule?
Answer: 0.9

Question: And the fold induction at 50 µM (E. cloacae; cutoff for positive-scoring molecules 3-fold increase, read-out: AK-based Prestwick Library Screening Results, E. cloacae (fold increase in extracellular AK activity))?
Answer: 1.6

Question: What about the fold induction at 50 µM (E. coli; cutoff for positive-scoring molecules 3-fold increase, read-out: AK-based Prestwick Library Screening Results, E. coli (fold increase in extracellular AK activity)) of the same molecule?
Answer: 1.2

Question: With `NC(=O)c1cnccn1` [Pyrazinamide] as the molecule, how does the fold induction at 50 µM (E. faecium; planktonic E. faecium, cutoff for positive-scoring molecules 3-fold increase, read-out: AK-based Prestwick Library Screening Results, E. faecium (increase in extracellular AK activity)) read?
Answer: 0.8

Question: What about the fold induction at 50 µM ([1]; planktonic S. aureus, cutoff for positive-scoring molecules 3-fold increase, read-out: AK-based Prestwick Library Screening Results, S. aureus (increase in extracellular AK activity)) of the same molecule?
Answer: 0.7

Question: And the fold induction at 50 µM (K. pneumoniae; planktonic K. pneumoniae, cutoff for positive-scoring molecules 3-fold increase, read-out: AK-based Prestwick Library Screening Results, K. pneumoniae (increase in extracellular AK activity))?
Answer: 0.8

Question: What about the fold induction at 50 µM ([2]; planktonic A. baumannii, cutoff for positive-scoring molecules 3-fold increase, read-out: AK-based Prestwick Library Screening Results, A. baumannii (increase in extracellular AK activity)) of the same molecule?
Answer: 0.9

Question: What about the fold induction at 50 µM (P. aeruginosa; planktonic P. aeruginosa, cutoff for positive-scoring molecules 3-fold increase, read-out: AK-based Prestwick Library Screening Results, P. aeruginosa (increase in extracellular AK activity)) of the same molecule?
Answer: 0.8

Question: And the fold induction at 50 µM (E. cloacae; planktonic E. cloacae, cutoff for positive-scoring molecules 3-fold increase, read-out: AK-based Prestwick Library Screening Results, E. cloacae (increase in extracellular AK activity))?
Answer: 1.2

Question: What about the fold induction at 50 µM (E. coli; planktonic E. coli, cutoff for positive-scoring molecules 3-fold increase, read-out: AK-based Prestwick Library Screening Results, E. coli (increase in extracellular AK activity)) of the same molecule?
Answer: 0.9

Question: For `CN(C)Cc1c[nH]c2ccccc12` [Gramine], which fold induction at 50 µM (E. faecium; planktonic, cutoff for positive 3-fold increase, read-out: AK-based Prestwick Library Screening Results, E. faecium (fold increase in extracellular AK activity)) is on record?
Answer: 1

Question: What about the fold induction at 50 µM ([1]; planktonic, cutoff for positive 3-fold increase, read-out: AK-based Prestwick Library Screening Results, S. aureus (fold increase in extracellular AK activity)) of the same molecule?
Answer: 1.3

Question: And the fold induction at 50 µM (K. pneumoniae; planktonic, cutoff for positive 3-fold increase, read-out: AK-based Prestwick Library Screening Results, K. pneumoniae (fold increase in extracellular AK activity))?
Answer: 1

Question: And the fold induction at 50 µM ([2]; planktonic, cutoff for positive 3-fold increase, read-out: AK-based Prestwick Library Screening Results, A. baumannii (fold increase in extracellular AK activity))?
Answer: 1.3

Question: What about the fold induction at 50 µM (P. aeruginosa; planktonic, cutoff for positive 3-fold increase, read-out: AK-based Prestwick Library Screening Results, P. aeruginosa (fold increase in extracellular AK activity)) of the same molecule?
Answer: 1.1

Question: And the fold induction at 50 µM (E. cloacae; planktonic, cutoff for positive 3-fold increase, read-out: AK-based Prestwick Library Screening Results, E. cloacae (fold increase in extracellular AK activity))?
Answer: 1.5

Question: And the fold induction at 50 µM (E. coli; planktonic, cutoff for positive 3-fold increase, read-out: AK-based Prestwick Library Screening Results, E. coli (fold increase in extracellular AK activity))?
Answer: 1.2

Question: Guanadrel sulfate was tested. Which “AK-based Prestwick Library Screening Results, E. faecium (fold increase in extracellular AK activity)” value (E. faecium; planktonic, […]) did it give?
Answer: 1.0

Question: And the “AK-based Prestwick Library Screening Results, S. aureus (fold increase in extracellular AK activity)” value ([1]; planktonic, […])?
Answer: 1.2

Question: And the “AK-based Prestwick Library Screening Results, K. pneumoniae (fold increase in extracellular AK activity)” value (K. pneumoniae; planktonic, […])?
Answer: 0.7

Question: And the “AK-based Prestwick Library Screening Results, A. baumannii (fold increase in extracellular AK activity)” value ([2]; planktonic, […])?
Answer: 1.0

Question: And the “AK-based Prestwick Library Screening Results, P. aeruginosa (fold increase in extracellular AK activity)” value (P. aeruginosa; planktonic, […])?
Answer: 1.1

Question: And the “AK-based Prestwick Library Screening Results, E. cloacae (fold increase in extracellular AK activity)” value (E. cloacae; planktonic, […])?
Answer: 1.4

Question: And the “AK-based Prestwick Library Screening Results, E. coli (fold increase in extracellular AK activity)” value (E. coli; planktonic, […])?
Answer: 1.3

From patent publication US10004701B2, “Methods and compositions for treating infection” (UNIVERSITY OF ROCHESTER, priority 2012, dated 2018)
